From PubChem BioAssay (NCI)
Where “and” joins values, the source holds several entries; their conditions need not be identical. Equal values may be shown once.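 In this assay, cells in 96-well plates receive the compound at five concentrations for 48 hours. Endpoints are linearly interpolated between the surrounding concentrations. GI50 marks 50% less growth. Definition used: TGI = concentration required for complete inhibition of growth.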

Columns and labels:
Assay in all cases: NCI-60 cell line screen, 48 h
[1] = tested on: 786-0 renal
[2] = tested on: DU-145 prostate
[3] = tested on: NCI-H23 lung
[4] = tested on: NCI/ADR-RES ovarian
[5] = tested on: OVCAR-3 ovarian
[6] = tested on: OVCAR-4 ovarian
[7] = tested on: OVCAR-8 ovarian
[8] = tested on: SK-MEL-28 melanoma
[9] = tested on: SK-OV-3 ovarian
[10] = tested on: UACC-62 melanoma

In the case of `CC(C)N(C[C@H]1O[C@@H](n2cnc3c(N)ncnc32)[C@H](O)[C@@H]1O)C1CC(CCc2nc3ccc(C(C)(C)C)cc3[nH]2)C1` (stereo not given in full), the GI50 [1] is reported as over 100 µM, the TGI [1] is reported as over 100 µM and the GI50 [2] is reported as over 100 µM. The TGI [2] was over 100 µM, the GI50 [3] was over 100 µM and the TGI [3] was over 100 µM. For the same compound, the GI50 [4] was over 100 µM, the TGI [4] was over 100 µM and the GI50 [5] was over 100 µM. The TGI [5] was over 100 µM, the GI50 [6] was 74.1 µM and the TGI [6] was over 100 µM. For the same compound, the GI50 [7] was over 100 µM, the TGI [7] was over 100 µM and the GI50 [8] was over 39.3 µM. It also gave a TGI [8] of over 54.1 µM, a GI50 [9] of over 100 µM and a TGI [9] of over 100 µM. It also gave a GI50 [10] of 99.7 µM and a TGI [10] of over 100 µM.
`O=C1c2ccccc2C(=O)c2sc(Nc3ccc(Cl)c(Cl)c3)nc21` was tested, and the TGI [1] was 3.59 µM, the TGI [2] was 33.2 µM and the TGI [3] was 10.5 µM. It also gave a TGI [5] of 6.3 µM, a TGI [6] of 5.69 µM and a TGI [7] of 8.02 µM. It also gave a TGI [8] of 20.7 µM, a TGI [9] of 32.1 µM and a TGI [10] of 7.94 µM.
With `CCCCCc1c(C)[nH]c(/C=c2\[nH]/c(=C3/C=c4ccccc4=N3)cc2OC)c1C` the GI50 [1] was 0.049 µM, the TGI [1] was 0.242 µM and the GI50 [2] was 0.0911 µM. It also gave a TGI [2] of 16.4 µM, a GI50 [3] of 0.236 µM and a TGI [3] of 3.1 µM. For the same compound, the GI50 [4] was 0.17 µM, the TGI [4] was 3.72 µM and the GI50 [5] was 0.109 µM. The TGI [5] was 0.699 µM, the GI50 [6] was 0.0687 µM and the TGI [6] was 16.3 µM. For the same compound, the GI50 [7] was 0.297 µM, the TGI [7] was 1.67 µM and the GI50 [8] was 0.125 µM. The TGI [8] was 1.22 µM, the GI50 [9] was 0.449 µM and the TGI [9] was 4.55 µM. For the same compound, the GI50 [10] was 0.0624 µM and the TGI [10] was 0.355 µM.
`COc1ccc(C2C3=C(COC3=O)N(CCO)c3cc4c(cc32)OCCO4)cc1OC` (stereo not given) was tested, and the GI50 [1] was 2.48 µM, the TGI [1] was over 50 µM and the GI50 [2] was 1.93 µM. The TGI [2] was 14.9 µM, the GI50 [3] was 2.25 µM and the TGI [3] was over 50 µM. It also gave a GI50 [4] of 11.4 µM, a TGI [4] of over 50 µM and a GI50 [5] of 1.11 µM. The TGI [5] was 3 µM, the GI50 [6] was 3.67 µM and the TGI [6] was over 50 µM. The GI50 [7] was 4.46 µM, the TGI [7] was over 50 µM and the GI50 [8] was over 50 µM. For the same compound, the TGI [8] was over 50 µM, the GI50 [9] was 1.98 µM and the TGI [9] was over 50 µM. The TGI [10] was over 50 µM.
With `Oc1[nH]c2ccc(Cl)cc2c1/C=c1/ccc2c(c1)N=C(c1cc(F)cc(F)c1)N=2` the GI50 [1] was 3.66 µM, the TGI [1] was over 100 µM and the GI50 [2] was 4.82 µM. It also gave a TGI [2] of over 100 µM, a GI50 [3] of 5.01 µM and a TGI [3] of over 100 µM. For the same compound, the GI50 [4] was 2.32 µM, the TGI [4] was 5.87 µM and the GI50 [5] was 2.26 µM. It also gave a TGI [5] of 5.73 µM, a GI50 [6] of 2.77 µM and a TGI [6] of over 100 µM. It also gave a GI50 [8] of 5.06 µM, a TGI [8] of over 100 µM and a GI50 [9] of 31.9 µM. It also gave a TGI [9] of over 100 µM, a GI50 [10] of 3.43 µM and a TGI [10] of over 100 µM.
`O=C(CC1(O)C(=O)Nc2c(Cl)ccc(Cl)c21)c1ccc(C2CC2)cc1` (stereo not given) showed a GI50 [1] of 1.78 µM, a TGI [1] of 16.9 µM and a GI50 [2] of 1.63 µM. It also gave a TGI [2] of 17.8 µM, a GI50 [3] of 0.772 µM and a TGI [3] of 23.1 µM. It also gave a GI50 [4] of 0.406 µM, a TGI [4] of 14.7 µM and a GI50 [5] of 3.46 µM. The TGI [5] was 16.6 µM, the GI50 [6] was 12.8 µM and the TGI [6] was 32.2 µM. The GI50 [7] was 1.43 µM, the TGI [7] was 13.4 µM and the GI50 [8] was 2.51 µM. For the same compound, the TGI [8] was 21.9 µM, the GI50 [9] was 1.33 µM and the TGI [9] was 17 µM. For the same compound, the GI50 [10] was 0.508 µM and the TGI [10] was 17.4 µM.
For `CN(C)CCOc1nc2ccccc2c2c1-c1ccc(Cl)cc1C2=O`, the GI50 [1] was 0.889 µM, the TGI [1] was 3.26 µM and the GI50 [2] was 0.444 µM. For the same compound, the TGI [2] was 1.35 µM, the GI50 [3] was 1.14 µM and the TGI [3] was 4.04 µM. For the same compound, the GI50 [4] was 0.696 µM, the TGI [4] was 4.4 µM and the GI50 [5] was 0.622 µM. The TGI [5] was 1.85 µM, the GI50 [6] was 0.927 µM and the TGI [6] was 4.04 µM. It also gave a GI50 [7] of 0.386 µM, a TGI [7] of 2.22 µM and a GI50 [8] of 1.65 µM. It also gave a TGI [8] of 3.15 µM, a GI50 [9] of 1.76 µM and a TGI [9] of over 37 µM. The GI50 [10] was 1.38 µM and the TGI [10] was 2.93 µM.
Compound `CCOC(=O)C1(Cc2ccc3ccccc3c2)CCCCCN1` (stereo not given) has a TGI [1] of 34.2 µM, a TGI [3] of over 100 µM and a TGI [5] of over 100 µM. It also gave a TGI [6] of over 100 µM, a TGI [7] of over 100 µM and a TGI [8] of 88.9 µM. For the same compound, the TGI [9] was over 100 µM and the TGI [10] was over 100 µM.
In the case of `O=c1[nH]c2c(O)cccc2c2cc3c(c(O)c12)OCO3`, the TGI [1] is reported as over 100 µM, the TGI [5] is reported as 45.2 µM and the TGI [6] is reported as 43.6 µM. For the same compound, the TGI [7] was over 100 µM, the TGI [9] was 84.7 µM and the TGI [10] was 71.3 µM.
In the case of `COc1cc2c3c(c1O)C1(C=CC(=O)C=C1)CC3N(C)CC2` (stereo not given), the TGI [1] is reported as 15.6 µM, the TGI [2] is reported as 26 µM and the TGI [3] is reported as 31.5 µM. It also gave a TGI [4] of 11 µM, a TGI [5] of 22.9 µM and a TGI [6] of over 100 µM. It also gave a TGI [7] of 38.4 µM, a TGI [8] of 26 µM and a TGI [9] of over 100 µM. For the same compound, the TGI [10] was 23.1 µM.
For `CCNCCNc1cc(-c2cccc(C(F)(F)F)c2)c(C#N)c2nc3ccccc3n12`, the GI50 [1] was 1.02 µM, the TGI [1] was 2.33 µM and the GI50 [2] was 1.47 µM. The TGI [2] was 2.83 µM, the GI50 [3] was 1.75 µM and the TGI [3] was 3.53 µM. For the same compound, the GI50 [4] was 1.81 µM, the TGI [4] was 3.86 µM and the GI50 [5] was 1.26 µM. The TGI [5] was 2.62 µM, the GI50 [6] was 1.6 µM and the TGI [6] was 3.24 µM. For the same compound, the GI50 [7] was 1.69 µM, the TGI [7] was 3.23 µM and the GI50 [8] was 1.86 µM. It also gave a TGI [8] of 3.63 µM, a GI50 [9] of 2 µM and a TGI [9] of 3.49 µM. It also gave a GI50 [10] of 1.69 µM and a TGI [10] of 3.2 µM.
Work on `O=[N+]([O-])c1cc(/C=N/NS(=O)(=O)c2ccc(F)cc2)c(O)c([N+](=O)[O-])c1` yielded a TGI [1] of over 100 µM, a TGI [3] of 60.1 µM and a TGI [5] of 68 µM. It also gave a TGI [6] of over 100 µM, a TGI [7] of 57.4 µM and a TGI [8] of over 100 µM. For the same compound, the TGI [9] was 78.3 µM and the TGI [10] was over 100 µM.
For `CCOC(=O)CNC(=O)C(CSC(=O)N(C)O)NC(=O)CCC(N)C(=O)O` (stereo not given), the GI50 [1] was over 2000 µM, the TGI [1] was over 2000 µM and the GI50 [3] was over 2000 µM. The TGI [3] was over 2000 µM, the GI50 [5] was over 2000 µM and the TGI [5] was over 2000 µM. For the same compound, the GI50 [6] was over 2000 µM, the TGI [6] was over 2000 µM and the GI50 [7] was over 2000 µM. The TGI [7] was over 2000 µM, the GI50 [8] was over 2000 µM and the TGI [8] was over 2000 µM. It also gave a GI50 [9] of over 2000 µM, a TGI [9] of over 2000 µM and a GI50 [10] of over 2000 µM. For the same compound, the TGI [10] was over 2000 µM.
`NC(=O)CCC(NC(=O)C(F)(F)F)C(=O)O` (stereo not given) was tested, and the TGI [1] was over 100 µM, the TGI [3] was over 100 µM and the TGI [5] was over 100 µM. The TGI [6] was over 100 µM, the TGI [7] was over 100 µM and the TGI [8] was over 100 µM. For the same compound, the TGI [9] was over 100 µM and the TGI [10] was over 100 µM.
`CC(C)[O-].CC(C)[O-].[O-]c1cccc2cccnc12.[O-]c1cccc2cccnc12.[Ti+4]` was tested, and the GI50 [1] was 3.38 µM and 4.05 µM, the TGI [1] was 20.9 µM and the GI50 [3] was over 100 µM. For the same compound, the TGI [3] was over 100 µM, the GI50 [5] was 15.4 µM and the TGI [5] was over 100 µM. For the same compound, the TGI [7] was over 100 µM, the GI50 [8] was 56.5 µM and the TGI [8] was over 100 µM. It also gave a GI50 [9] of over 100 µM, a TGI [9] of over 100 µM and a GI50 [10] of 28.5 µM. The TGI [10] was over 100 µM.
